The test system of the test is excised human nerve tissue. Kind of test: Phage display selection on excised human nerve tissue (Nerve2, Nerve3), NextGen sequence counts. As to conditions: unique sequence count (relative enrichment). Format: binding. In short, it runs like this:
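Randomized parent-peptide m13 phage libraries (about 50% mutation per residue) selected on washed excised human nerve tissue over multiple rounds, washing nerve pellet with PBS. NextGen sequencing of pools after rounds 2, 3 and 4; translated peptides counted by frequency, with counts 6 or greater retained.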

253 (LLPSDEAHYIVKHS) [compound 253] showed a Count (Nerve2 only) of 14.
On to 254 (NVLSEQPGYVMEYL) [compound 254], for which the Count (Nerve2 only) is on record as 14.
With 255 (QLPWTNPFHVVNKY) [compound 255], the Count (Nerve2 only) came out at 14.
256 (QYSLDESPYGAKKS) [compound 256] yielded a Count (Nerve2 only) of 14.
Consider 257 (YVPGAAPIGIVHKS) [compound 257], for which, for the setting “Nerve2 only”, the Count is given as 14.
Where the note is “Nerve2 only”, 258 (HFAWEEVFHVKKNF) [compound 258] came in with a Count of 13.
Same read-out and setting: the value for 259 (HSPSKESHYVLENM) [compound 259] was 13; that for 260 (HVPFGGTYSVEGES) [compound 260] was 13; that for 261 (HYRCVGSCYVVAKS) [compound 261] was 13.
Same read-out and setting: then 262 (LFRSQAQNVLVISH) [compound 262], with 13.
On the same count and under the same terms, then 263 (QFPGSELTVSVIQV) [compound 263], with 13.
For the substance 264 (QFSSQEAHYELNTP) [compound 264], where the note is “Nerve2 only”, the Count is given as 13.
265 (QSPWDEPYYGVLMA) [compound 265] showed a Count (Nerve2 only) of 13.
The substance 266 (QSTPEERYHRVIQA) [compound 266] had a Count (Nerve2 only) of 13.
Same read-out and setting: the value for 267 (QVPLGAPFYAVRKS) [compound 267] was 13; that for 268 (YERWEAPFYDVQKS) [compound 268] was 13; that for 269 (HVAWNEPHHVLLQI) [compound 269] was 12.
Same read-out and setting: then 270 (HVLWEDPYYVVRMP) [compound 270], with 12; and 271 (HVQLREHYFVVYSS) [compound 271], with 12.
Still for that read-out and setting: then 272 (HVSSEAPYYVLNKS) [compound 272], with 12.
Turning to 273 (LFPLDETYYVAKVS) [compound 273], for the setting “Nerve2 only”, the Count is on record as 12.
As to 274 (QALLEEKYTALKKS) [compound 274], the Count (Nerve2 only) is reported as 12.
On the same count and under the same terms, the value for 275 (QFPWEQRNYDVKKY) [compound 275] was 12; that for 276 (QIPLDARSYLLKRP) [compound 276] was 12; that for 277 (QIQREEPFYVLKLY) [compound 277] was 12.
In turn, 278 (QLPSKASNSVQQTF) [compound 278] yielded a Count (Nerve2 only) of 12.
For 279 (QLPWEKPYYDVEVT) [compound 279], the Count (Nerve2 only) came to 12.
In turn, 280 (QNPGKSPYYVVHKS) [compound 280] came in with a Count (Nerve2 only) of 12.
Under “Nerve2 only”, 281 (QVWGEVPLSGAKRF) [compound 281] yielded a Count of 12.
Same read-out and setting: the value for 282 (RVPSAAAYYGAKIS) [compound 282] was 12; that for 283 (VFSSDSQYLFVPNF) [compound 283] was 12; that for 284 (DRPVEVPSDFVNNS) [compound 284] was 11.
Substance 285 (DVLGIERYYAVKDP) [compound 285] displayed a Count (Nerve2 only) of 11.
Take 286 (HHPGVGPFHVVKRS) [compound 286]: for the setting “Nerve2 only”, the Count was found to be 11.
Still for that read-out and setting: then 287 (HLSQYEPYDPVDKS) [compound 287], with 11.
Consider 288 (HVAWDGAYNLVQTT) [compound 288], for which, where the note is “Nerve2 only”, the Count turned out to be 11.
Still for that read-out and setting: the value for 289 (HVPGQDPYDVQATY) [compound 289] was 11.
Regarding 290 (HVPLEGSYLDDINS) [compound 290], where the note is “Nerve2 only”, the Count came to 11.
For the setting “Nerve2 only”, 291 (HVTLAEPHLLLGKS) [compound 291] displayed a Count of 11.
As to 292 (KFSLVHPEYYGKET) [compound 292], under “Nerve2 only”, the Count is recorded as 11.
Substance 293 (NLPGVEQYNLPNSS) [compound 293] yielded a Count (Nerve2 only) of 11.
Take 294 (NVPWQVPYSVLKMP) [compound 294]: where the note is “Nerve2 only”, the Count is 11.
Still for that read-out and setting: the value for 295 (QFAGEVPYYFATDL) [compound 295] was 11.
Same read-out and setting: the value for 296 (QHPMDPTYHVVIKA) [compound 296] was 11.
Still for that read-out and setting: then 297 (QILSEEPYYRVDMP) [compound 297], with 11; and 298 (QIPLAYSNYVVNKY) [compound 298], with 11.
For 299 (QITFEVPCCLVRKG) [compound 299], the Count (Nerve2 only) is reported as 11.
On the same count and under the same terms, then 300 (QLGLDKLNHLVKKS) [compound 300], with 11; and 301 (QSSSVEPYYVLQNS) [compound 301], with 11.
The substance 302 (QVACEQPYYNVNCS) [compound 302] yielded a Count (Nerve2 only) of 11.
303 (RLPEAEPYYLMTQP) [compound 303] yielded a Count (Nerve2 only) of 11.
On the same count and under the same terms, then 304 (RVPGERQYDALNLS) [compound 304], with 11; and 305 (YVPLQEPYYVVKQS) [compound 305], with 11.
As for 306 (ESALKEPHQVLKHS) [compound 306], the Count (Nerve2 only) amounted to 10.
Same read-out and setting: then 307 (HAPADQLYYPVWKP) [compound 307], with 10; and 308 (HFPWEEPYHVAKRS) [compound 308], with 10; and 309 (HFQSEEPYHIPHKH) [compound 309], with 10.
The same measure, in the same setting: then 310 (HHPLQEPYYVVEKS) [compound 310], with 10.
On to 311 (HMPGREPYYVVTTS) [compound 311], for which, where the note is “Nerve2 only”, the Count turned out to be 10.
Regarding 312 (HVAWKGPYYVLETH) [compound 312], the Count (Nerve2 only) is given as 10.
Still for that read-out and setting: the value for 313 (HVHGAPSYSVLKHS) [compound 313] was 10; that for 314 (HVLWVEPYYVINKY) [compound 314] was 10.
Turning to 315 (HVPRVDHLYVETKS) [compound 315], for the setting “Nerve2 only”, the Count is 10.
The same measure, in the same setting: the value for 316 (HVPSGERYYVVKTI) [compound 316] was 10.
317 (HVPYVGAYNGVKKS) [compound 317] gave a Count (Nerve2 only) of 10.
In turn, 318 (HVQWEGPYYDVKKS) [compound 318] gave a Count (Nerve2 only) of 10.
The substance 319 (HVRGAELSYVLTKS) [compound 319] registered a Count (Nerve2 only) of 10.
The same measure, in the same setting: then 320 (HVTWGEPYQVLNKS) [compound 320], with 10.
In turn, 321 (KLLTEAPYMFRTQA) [compound 321] gave a Count (Nerve2 only) of 10.
Still for that read-out and setting: the value for 322 (KLPWQESYDIVRKS) [compound 322] was 10; that for 323 (KLQWQDPDYVVKNS) [compound 323] was 10; that for 324 (KQLGVLPDYVRKNT) [compound 324] was 10.
For 325 (LAPFEERSYALKSP) [compound 325], the Count (Nerve2 only) was 10.
Substance 326 (LASWDEPSSVLRES) [compound 326] had a Count (Nerve2 only) of 10.
The same measure, in the same setting: the value for 327 (LLPPDEPYYPMKKS) [compound 327] was 10; that for 328 (NLQWEQPSYVAKDY) [compound 328] was 10.
Still for that read-out and setting: the value for 329 (NVPWSEQYNALKTS) [compound 329] was 10.
Take 330 (QFASSHTDYVADKS) [compound 330]: the Count (Nerve2 only) turned out to be 10.
In the case of 331 (QIQWQGSYNDLNKS) [compound 331], for the setting “Nerve2 only”, the Count was 10.
For 332 (QISSEEPTSLLDRP) [compound 332], the Count (Nerve2 only) is listed as 10.
Still for that read-out and setting: the value for 333 (QKPTGASYYGTKPS) [compound 333] was 10.
334 (QLAFDGPSPILTTS) [compound 334] registered a Count (Nerve2 only) of 10.
In the case of 335 (QLHWGQPYSILNKS) [compound 335], where the note is “Nerve2 only”, the Count is 10.
336 (QLPCEVPCYLVQYS) [compound 336] had a Count (Nerve2 only) of 10.
The same measure, in the same setting: then 337 (QLPLQYRYYFVDQS) [compound 337], with 10; and 338 (QLPWEGKYQLGKKR) [compound 338], with 10; and 339 (QLRWHEPYHVVNRY) [compound 339], with 10.
Still for that read-out and setting: then 340 (QSQCAGPGSAYKKC) [compound 340], with 10; and 341 (QTLAGETNSVVLKF) [compound 341], with 10.
In turn, 342 (QTQCEEPCYVVKFA) [compound 342] displayed a Count (Nerve2 only) of 10.
Same read-out and setting: the value for 343 (QVPSEEQFYAAVKS) [compound 343] was 10; that for 344 (QVPSENPFRVLKNL) [compound 344] was 10.
Take 345 (QVRYVASSDLVRIP) [compound 345]: the Count (Nerve2 only) is reported as 10.
The same measure, in the same setting: the value for 346 (QVSLQEPGDVLKEF) [compound 346] was 10.
On the same count and under the same terms, the value for 347 (QVSREEPSGVVNKP) [compound 347] was 10; that for 348 (RLPSEALYYLVKRS) [compound 348] was 10.
349 (YVPVEGIQHVVEKS) [compound 349] came in with a Count (Nerve2 only) of 10.
In turn, 350 (HVRCEEPYCHVRKS) [compound 350] registered a Count (Nerve3 only) of 755.
351 (ELPWQKRKDVMKYP) [compound 351] showed a Count (Nerve3 only) of 638.
Take 352 (QMPWEVPYYVVKRS) [compound 352]: the Count (Nerve3 only) worked out at 548.
On the same count and under the same terms, the value for 353 (DDIWEVPKYRPKNS) [compound 353] was 475.
The same measure, in the same setting: the value for 354 (QIASEERDNIVKKS) [compound 354] was 462; that for 355 (RVPWQEPYYVVLKP) [compound 355] was 419; that for 356 (QLPGYEPYYVGTVS) [compound 356] was 412.
Same read-out and setting: then 357 (RIPSVGPYGVVKTF) [compound 357], with 391; and 358 (QDVWAEPYYAGKQP) [compound 358], with 390; and 359 (HVAWQEPRYFVKKS) [compound 359], with 359.
360 (YLFAEELAYNLTKS) [compound 360] had a Count (Nerve3 only) of 359.
Still for that read-out and setting: then 361 (QRPWEQAYFVVRST) [compound 361], with 357.

The record behind these values is patent US20240207422A1, “NERVE TARGETING PEPTIDE CONJUGATES AND METHODS OF USE” (Alume Biosciences, Inc., priority 2022, published 2024).
